Two compounds from patent publication US20040019118A1, “NMDA receptor antagonists and their use in inhibiting abnormal hyperphosphorylation of microtubule associated protein tau” (priority 2002, published 2004) can be followed below.

What all share (format): cell-based, rat
In one test the test system is MAP2. The experiment in a line: 125I-Western blots of MAP2 in slice homogenates. The protocol: (§1) Organotypic cultures of rat hippocampal slices were prepared from 20-30 day old Wistar rats and cultured with the interface method as described previously (Stoppini, et al. 1991; Bahr, et al. 1995; Zhongrin, et al. 2000). The rats were anesthetized with ketamine (100 mg/kg body weight) and decapitated and the hippocampi were dissected out and sliced into 400 um coronal sections by a McIllwain tissue chopper. Select slices with uninterrupted bright transparent neuronal layers were plated, 1-3 slices/filter, onto Millicell CM filters (Millipore, Bedford, Mass.). For the first 2 days in vitro (DIV) cultures were maintained in 25% horse serum, 50% Basal Media-Eagle (BEM), 25% Eagle's Balanced Salt Solution (EBSS), 25 mM HEPES, 1 mM glutamine, 28 mM glucose, pH 7.2, at 32° C. in a 5% CO2 humidified atmosphere. The slice cultures were then switched to 25% horse serum, 50% BEM and EBSS modified so that the potassium concentration was 2.66 mM, for another 5 DIV. […]
The phosphorylation of tau at Ser 262 and the levels of MAP2 and phosphorylated NF-H/M were assayed by ^125I-Western blots. […] Both immuno-dot-blots and Western blots were developed with ^125I-radiolabeled secondary antibodies and radioimmunoreactivity was visualized and quantitated using a phosphorimager (Fujifilm BAS-1500) and TINA 2.0 software (Raytest Isotopenmessgeräte GmbH)

The next test concerns pNF-H/M. The test can be described thus: Immunohistochemical staining of neurofilaments (pNF-H/M) in cultured hippocampal slices. The settings on record: 100 nM OA 24 h. The protocol: as §1
After different treatments some of the hippocampal slices were fixed in periodate/lysine/paraformaldehyde solution (Mclean, et al. 1974) at 33° C. for 5 h and then kept in 1% Triton-x-100 in PBS (pH 7.4) for 72 h at room temperature to improve the penetration of the antibodies. […] Peroxidase was detected using 0.05% diaminobenzidine (DAB) and H2O2 (0.01%) for 10 min.

A further test has as its system PKA. The experiment in a line: PKA activity in extracts of treated hippocampal slice cultures. The protocol: (§2) Organotypic cultures of rat hippocampal slices were prepared from 20-30 day old Wistar rats and cultured with the interface method as described previously (Stoppini, et al. 1991; Bahr, et al. 1995; Zhongrin, et al. 2000). The rats were anesthetized with ketamine (100 mg/kg body weight) and decapitated and the hippocampi were dissected out and sliced into 400 um coronal sections by a McIllwain tissue chopper. Select slices with uninterrupted bright transparent neuronal layers were plated, 1-3 slices/filter, onto Millicell CM filters (Millipore, Bedford, Mass.). For the first 2 days in vitro (DIV) cultures were maintained in 25% horse serum, 50% Basal Media-Eagle (BEM), 25% Eagle's Balanced Salt Solution (EBSS), 25 mM HEPES, 1 mM glutamine, 28 mM glucose, pH 7.2, at 32° C. in a 5% CO2 humidified atmosphere. The slice cultures were then switched to 25% horse serum, 50% BEM and EBSS modified so that the potassium concentration was 2.66 mM, for another 5 DIV. After 7 DIV, the cultures were maintained in physiological potassium containing 5% horse serum medium at 35° C. for at least 20 days before any treatment was applied. When the slices were treated, the reagents were applied into the culture medium. At different time points, the slices collected with a brush were washed twice in homogenizing buffer (50 mM HEPES, pH 7.0, 10 mM β-merceptoethanol [BME], 1 mM EDTA, 1 mM EGTA, 0.1 mM phenylmethyl sulfonyl fluoride [PMSF], 2.0 mM benzamidine and 2.0 μg/ml each of aprotinin, leupeptin and pepstatin) and homogenized at 4° C. using a Teflon-glass homogenizer. The homogenate was then divided into two parts, one was centrifuged at 16000×g for 15 min and the supernatant was used to assay activities of PP-2A and PP-1. The rest of the homogenate was diluted 1:1 with a phosphatase inhibitor cocktail (20 mM β-glycerophosphate, 2 mM Na3VO4 and 100 mM NaF, pH 7.0) and either used for Western blots or centrifuged at 16000×g for 15 min and the resulting supernatant used to determine the kinase activities.
(§3) CaMKII activity was measured in 25 μl of buffer containing 50 mM HEPES, pH 7.5, 10 mM MgCl2, 2.0 mM CaCl2, 10 mM BME, 10 μg/ml calmodulin (CaM), 20 μM syntide (Sigma, St Louis Mo., USA), 0.06 mg/ml slice extract and 200 μM [γ^32P]ATP. The reaction was initiated by adding [γ32p] ATP. After incubation for 10 min at 30° C., 10 μl reaction mixture was removed and spotted on to phosphocellulose membrane. The membrane was then washed five times in 1% phosphoric acid to remove non-protein incorporated ^32P, dried and counted by Cerenkov radiation. The activity of PKA was determined as above except the reaction mixture contained 70 mM NaHPO4, pH 6.8, 14 mM MgCl2, 1.4 mM EDTA, 30 μM malantide (Sigma, St Louis, Mo., USA), 200 μM [γ^32p] ATP and 0.06 mg/ml slice extract.

Another test deals with CaMKII. The experiment in a line: CaMKII activity in extracts of treated hippocampal slice cultures. The protocol: as §2, §3
Setting [1] is: 100 nM OA, 10 μM Memantine, 24 h.

“Also recorded” adds a separate entry of the source.

Regarding `C=C1[C@@H](O)[C@@H]2O[C@]3(CC[C@H](/C=C/[C@@H](C)[C@@H]4CC(C)=C[C@@]5(O[C@H](C[C@@](C)(O)C(=O)O)CC[C@H]5O)O4)O3)CC[C@H]2O[C@@H]1[C@@H](O)C[C@H](C)[C@H]1O[C@@]2(CCCCO2)CC[C@H]1C` [OA, Okadaic Acid], the MAP2 level result in the test with MAP2 (OA-treated cultures) was “a decrease in MAP2”. Further, the “neurofilament (pNF-H/M, SMI 31) immunostaining” value in the test with pNF-H/M (then medium 24 h) is “immunostaining was increased; also recorded: an increase in phosphorylation and accumulation of NF-H/M”. In addition, in the test with PKA (100 nM OA, 24 h or 48 h), the “increase in PKA activity” value is ~20%. Further, the “change in PKA activity” value in the test on PKA (OA-treated slice cultures) is given as “no significant changes; also recorded: no significant alteration”. For the same compound, the “increase in CaMKII activity” value is ~20% in the test on CaMKII (10 nM OA, 24 h); ~70% with CaMKII (100 nM OA, 24 h); ~140% in the test on CaMKII (1,000 nM OA, 24 h). Besides, the “CaMKII activity as % of control” value with CaMKII (100 nM OA, 24 h) came to 180%; in the test on CaMKII (1000 nM OA, 24 h), 240%. For the same compound, the “change in CaMKII activity” value in the test on CaMKII (OA-treated slice cultures) is given as “marked increase”.
`CC12CC3CC(C)(C1)CC(N)(C3)C2` [Memantine, 1-amino-3,5-dimethyl adamantane]: the MAP2 level entry with MAP2 (OA then Memantine) was “reversal to normal levels; also recorded: increased the levels of MAP2”. Further, the “neurofilament (pNF-H/M, SMI 31) immunostaining” value in the test on pNF-H/M (then 10 μM Memantine 24 h) was “reduced these changes; also recorded: partially reversed”. The “restoration of OA-induced change in PKA activity” value in the test with PKA (setting [1]) was “restored the OA-induced changes in the activities of PP-2A, CaMKII and PKA to normal levels”. In the test on PKA (100 nM OA, p<0.05), the “concentration (as low as) restoring OA-induced increase in PKA activity to normal level” value worked out at 1 µM. The “effect on PKA activity in control/untreated cultures” value with PKA (no OA) is “no significant effect”. Further, the “restoration of OA-stimulated CaMKII activity” value in the test on CaMKII (100 nM OA and 1, 10 or 30 μM Memantine, 3-48 h (FIG. 2b), p<0.02) is reported as “restored the OA-stimulated CaMKII activity to normal level”. In the test on CaMKII (100 nM OA plus 10 μM Memantine 24 h, or OA 24 h, wash, then Memantine 24 h), the “restoration of CaMKII activity” value was “Restoration of CaMKII activity; also recorded: almost completely restored; also recorded: restored the activities of both PP-2A and CaMKII”. In addition, the “restoration of OA-stimulated CaMKII activity” value with CaMKII (setting [1]) was “restored the OA-induced changes in the activities of PP-2A, CaMKII and PKA to normal levels; also recorded: practically completely restored”. Moreover, in the test on CaMKII (Memantine 10 to 30 μM, or 24 h to 48 h), the “additional effect on restoration of CaMKII activity” value was “Neither increase of Memantine from 10 μM to 30 μM nor duration of the treatment from 24 h to 48 h resulted in any significant additional effect”. In the test on CaMKII (OA-treated slices), the “concentration giving full effect on restoration of CaMKII activity” value is 10 µM and the “lowest concentration at which restoration of CaMKII activity was observed” value was determined as 1 µM. Also, the “CaMKII activity after replacement of glutamate” value in the test on CaMKII (after 0.3 mM glutamate, fresh medium with or without 10 μM Memantine or 15 μM MK801) was “restored the CaMKII activity to normal level”. Further, in the test on CaMKII (no OA), the “effect on CaMKII activity in control (untreated) slices” value is “no significant effect”.
